Test results from ChEMBL document CHEMBL5543127, “Design, Synthesis, and Biological Evaluation of 2-Phenoxyalkylhydrazide Benzoxazole Derivatives as Quorum Sensing Inhibitors with Strong Antibiofilm Effect” (J Med Chem, 2024).
≈ marks a conversion by molar mass, not a printed value. Calls of active or inactive are those of the source. No cut-off for these calls is given here.

Tests used:
[1] = tested on: Escherichia coli; assay: Anti-microbial activity against penicillin-susceptible Escherichia coli ATCC25922 incubated for 20 hrs By CLSI based micro-dilution method; assay type: functional
[2] = tested on: Pseudomonas aeruginosa; assay: Antibacterial activity against Pseudomonas aeruginosa PAO1 at logarithmic growth phase assessed as growth inhibition at 153.6 microg/ml measured upto 25 hrs by growth curve assay; assay type: functional, organism-based; conditions: dose 153.6 µg/ml
[3] = tested on: Pseudomonas aeruginosa; assay: Anti-microbial activity against penicillin-susceptible Pseudomonas aeruginosa 27853 incubated for 20 hrs By CLSI based micro-dilution method; assay type: functional
[4] = tested on: Staphylococcus aureus; assay: Anti-microbial activity against erythromycin-susceptible Staphylococcus aureus ATCC25923 incubated for 20 hrs By CLSI based micro-dilution method; assay type: functional
[5] = tested on: Pseudomonas aeruginosa; assay: Inhibition of protease in logarithmic growth phase Pseudomonas aeruginosa PAO1 assessed as inhibition rate at 102.4 microg/ml measured after 32 hrs; conditions: dose 102.4 µg/ml
[6] = tested on: Bacillus subtilis; assay: Anti-microbial activity against Bacillus subtilis ATCC9372 incubated for 20 hrs By CLSI based micro-dilution method; assay type: functional
[7] = tested on: Pseudomonas aeruginosa; assay: Anti-microbial activity against Pseudomonas aeruginosa PAO1 incubated for 20 hrs By CLSI based micro-dilution method; assay type: functional
[8] = tested on: Bacillus pumilus; assay: Anti-microbial activity against Bacillus pumilus CMCC63202 incubated for 20 hrs By CLSI based micro-dilution method; assay type: functional
[9] = tested on: Staphylococcus aureus; assay: Anti-microbial activity against methicillin-resistant Staphylococcus aureus ATCC43300 incubated for 20 hrs By CLSI based micro-dilution method; assay type: functional
[10] = tested on: Pseudomonas aeruginosa; assay: Antibacterial activity against Pseudomonas aeruginosa 27853 at logarithmic growth phase assessed as growth inhibition at 153.6 microg/ml measured upto 25 hrs by growth curve assay; assay type: functional, organism-based; conditions: dose 153.6 µg/ml
[11] = Inhibition of quorum sensing system in Pseudomonas aeruginosa PAO1 at logarithmic growth period assessed as inhibition of pyocyanin production at 102.4 microg/ml incubated for 18 hrs by pyocyanin inhibition assay; conditions: dose 102.4 µg/ml

Row | SMILES | MIC [1] [µg/mL] | Activity [2] | MIC [3] [µg/mL] | MIC [4] [µg/mL] | inhibition [5] [%] | MIC [6] [µg/mL] | MIC [7] [µg/mL] | MIC [8] [µg/mL] | MIC [9] [µg/mL] | Activity [10] | inhibition [11]
1 | Cn1/c(=N/NC(=O)c2ccc(F)cc2)sc2ccccc21 | > 512 | inactive | > 512 | > 512 | > 20 | > 512 | > 512 | > 512 | > 512 | inactive | –
2 | Cn1c(=NNC(=O)CCCCOc2ccc(F)cc2)sc2ccccc21 | > 512 | – | > 512 | – | – | 512 (≈ 1370 µM) | > 512 | 256 (≈ 685 µM) | – | – | Active
3 | COc1ccccc1/C=N/Nc1nc2ccccc2o1 | > 512 | inactive | > 512 | 256 (≈ 958 µM) | – | 512 (≈ 1920 µM) | > 512 | > 512 | > 512 | inactive | inactive
4 | Clc1cccc(/C=N/Nc2nc3ccccc3o2)c1 | > 512 | inactive | > 512 | 256 (≈ 942 µM) | – | 512 (≈ 1880 µM) | > 512 | 512 (≈ 1880 µM) | > 512 | inactive | inactive
5 | O=C(CCCOc1cccc(F)c1)NNc1nc2ccccc2o1 | > 512 | – | 512 (≈ 1550 µM) | > 512 | 30 | > 512 | > 512 | > 512 | > 512 | – | inactive
6 | Cn1c(=NNC(=O)CCCCOc2ccc(Cl)cc2)sc2ccccc21 | > 512 | – | > 512 | 256 (≈ 657 µM) | – | 512 (≈ 1310 µM) | > 512 | 256 (≈ 657 µM) | – | – | Active
7 | O=C(CCCCCOc1cccc(F)c1)NNc1nc2ccccc2o1 | > 512 | – | 512 (≈ 1430 µM) | 256 (≈ 716 µM) | – | 512 (≈ 1430 µM) | > 512 | > 512 | > 512 | – | inactive
8 | Cc1cccc2sc(NNC(=O)CCCCOc3ccc(Cl)cc3)nc12 | > 512 | – | > 512 | > 512 | – | 512 (≈ 1310 µM) | > 512 | 512 (≈ 1310 µM) | 512 (≈ 1310 µM) | – | 42.2%
9 | CCCCCCCC(=O)N/N=c1\sc2ccccc2n1C | > 512 | – | > 512 | > 512 | > 20 | > 512 | > 512 | > 512 | > 512 | – | –
10 | Clc1ccc(/C=N/Nc2nc3ccccc3o2)cc1 | > 512 | inactive | > 512 | 64 (≈ 236 µM) | 21.4 | 512 (≈ 1880 µM) | > 512 | > 512 | 512 (≈ 1880 µM) | inactive | inactive
11 | CCCCCCCCCC(=O)N/N=c1\sc2ccccc2n1C | > 512 | – | > 512 | 512 (≈ 1540 µM) | – | 512 (≈ 1540 µM) | > 512 | > 512 | > 512 | – | Active
12 | CCCC(=O)N/N=c1\sc2ccccc2n1C | > 512 | – | > 512 | 512 (≈ 2050 µM) | – | > 512 | > 512 | > 512 | > 512 | – | Active
13 | CC[C@H]1OC(=O)[C@H](C)[C@@H](O[C@H]2C[C@@](C)(OC)[C@@H](O)[C@H](C)O2)[C@H](C)[C@@H](O[C@@H]2O[C@H](C)C[C@H](N(C)C)[C@H]2O)[C@](C)(OC)C[C@@H](C)C(=O)[C@H](C)[C@@H](O)[C@]1(C)O [CLARITHROMYCIN] | 128 (≈ 171 µM) | – | 128 (≈ 171 µM) | 0.25 (≈ 0.334 µM) | – | 0.25 (≈ 0.334 µM) | 256 (≈ 342 µM) | 0.25 (≈ 0.334 µM) | 16 (≈ 21.4 µM) | – | –
14 | Cc1ccc(C(=O)N/N=c2\sc3ccccc3n2C)cc1 | > 512 | – | > 512 | > 512 | – | > 512 | > 512 | > 512 | > 512 | – | –
15 | Cn1/c(=N/NC(=O)c2ccccc2F)sc2ccccc21 | > 512 | inactive | > 512 | > 512 | > 20 | > 512 | > 512 | > 512 | > 512 | inactive | –
16 | Cc1cccc(C(=O)NNc2nc3ccccc3s2)c1 | > 512 | – | 512 (≈ 1810 µM) | > 512 | – | 512 (≈ 1810 µM) | > 512 | 512 (≈ 1810 µM) | > 512 | – | 62.8%
17 | O=C(CCCCCOc1ccc(F)cc1)NNc1nc2ccccc2o1 | > 512 | – | 512 (≈ 1430 µM) | 512 (≈ 1430 µM) | – | 512 (≈ 1430 µM) | > 512 | > 512 | > 512 | – | inactive
18 | Cc1cccc(C(=O)N/N=c2\sc3ccccc3n2C)c1 | > 512 | – | > 512 | > 512 | – | 512 (≈ 1720 µM) | > 512 | > 512 | > 512 | – | –

Row | SMILES | MIC [1] [µg/mL] | Activity [2] | MIC [3] [µg/mL] | MIC [4] [µg/mL] | inhibition [5] [%] | MIC [6] [µg/mL] | MIC [7] [µg/mL] | MIC [8] [µg/mL] | MIC [9] [µg/mL] | Activity [10] | inhibition [11]
19 | Clc1ccc(/C=N/Nc2nc3ccccc3o2)cc1Cl | > 512 | – | > 512 | 64 (≈ 209 µM) | – | 512 (≈ 1670 µM) | > 512 | > 512 | 512 (≈ 1670 µM) | – | inactive
20 | O=C(CCCCCOc1ccc(Cl)cc1)NNc1nc2ccccc2o1 | > 512 | – | 512 (≈ 1370 µM) | 256 (≈ 685 µM) | – | 512 (≈ 1370 µM) | > 512 | 256 (≈ 685 µM) | 256 (≈ 685 µM) | – | inactive
21 | O=C(NNc1nc2ccccc2s1)c1ccc(F)cc1 | > 512 | – | 512 (≈ 1780 µM) | > 512 | – | 512 (≈ 1780 µM) | > 512 | > 512 | 256 (≈ 891 µM) | – | –
22 | CCCCCC(=O)N/N=c1\sc2ccccc2n1C | > 512 | – | > 512 | 256 (≈ 923 µM) | – | > 512 | > 512 | > 512 | > 512 | – | –
23 | COc1ccccc1C(=O)N/N=c1\sc2ccccc2n1C | > 512 | – | > 512 | > 512 | – | > 512 | > 512 | > 512 | > 512 | – | –
24 | COc1ccc(OCCCCCC(=O)NNc2nc3ccccc3o2)cc1 | > 512 | – | 512 (≈ 1390 µM) | 256 (≈ 693 µM) | – | 512 (≈ 1390 µM) | > 512 | 512 (≈ 1390 µM) | 512 (≈ 1390 µM) | – | inactive
25 | COc1cccc(/C=N/Nc2nc3ccccc3o2)c1 | > 512 | inactive | > 512 | 128 (≈ 479 µM) | – | 512 (≈ 1920 µM) | > 512 | 512 (≈ 1920 µM) | > 512 | inactive | inactive
26 | CCCCCCCCC(=O)N/N=c1\sc2ccccc2n1C | > 512 | – | > 512 | > 512 | – | > 512 | > 512 | > 512 | > 512 | – | Active
27 | O=C(CCCCOc1ccc(F)cc1)NNc1nc2ccccc2s1 | > 512 | inactive | > 512 | > 512 | – | > 512 | > 512 | > 512 | > 512 | inactive | Active
28 | CCCCC(=O)N/N=c1\sc2ccccc2n1C | > 512 | – | > 512 | 512 (≈ 1940 µM) | – | > 512 | > 512 | > 512 | > 512 | – | Active
29 | CCCCCCC(=O)N/N=c1\sc2ccccc2n1C | > 512 | – | > 512 | > 512 | – | > 512 | > 512 | > 512 | > 512 | – | –
30 | CCCCCCCCCCCC(=O)N/N=c1\sc2ccccc2n1C | > 512 | inactive | > 512 | > 512 | > 20 | > 512 | > 512 | > 512 | > 512 | inactive | –
31 | O=C(CCCOc1ccc(F)cc1)NNc1nc2ccccc2o1 | > 512 | – | 128 (≈ 389 µM) | 256 (≈ 777 µM) | 30 | 512 (≈ 1550 µM) | > 512 | 256 (≈ 777 µM) | 256 (≈ 777 µM) | – | inactive
32 | O=C(NNc1nc2ccccc2s1)c1cccc(Cl)c1 | > 512 | – | 512 (≈ 1690 µM) | > 512 | – | 512 (≈ 1690 µM) | > 512 | 256 (≈ 843 µM) | 128 (≈ 421 µM) | – | –
33 | O=[N+]([O-])c1ccccc1/C=N/Nc1nc2ccccc2o1 | > 512 | – | > 512 | 128 (≈ 453 µM) | – | 512 (≈ 1810 µM) | 256 (≈ 907 µM) | 256 (≈ 907 µM) | 256 (≈ 907 µM) | – | inactive
34 | CC(C)c1ccc(/C=N/Nc2nc3ccccc3o2)cc1 | > 512 | – | > 512 | 64 (≈ 229 µM) | – | 512 (≈ 1830 µM) | > 512 | 512 (≈ 1830 µM) | 256 (≈ 916 µM) | – | inactive
35 | Brc1ccccc1/C=N/Nc1nc2ccccc2o1 | > 512 | – | > 512 | 128 (≈ 405 µM) | – | 512 (≈ 1620 µM) | > 512 | > 512 | 256 (≈ 810 µM) | – | inactive
